The values that follow come from patent US11091482B2, “Isoxazolyl-carbonyloxy azabicyclo[3.2.1]octanyl compounds as FXR activators” (ARDELYX, INC., priority 2016, dated 2021).

Like-named read-outs stand apart in the source and are kept apart here.

Data set [1] deals with ligand binding domain of human FXR (Homo sapiens (Human), UniProt Q96RI1). The experiment in a line: FXR ligand binding assay (LanthaScreen FRET).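 As to all read-outs here: TR-FRET coactivator recruitment: ligand-induced binding of fluorescein-labelled SRC2-2 peptide to GST-tagged FXR LBD detected via Tb anti-GST antibody, serial compound dilutions, 3-parameter logistic fit.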 Set-up: Activity, %: concentration or dose not given beside the values. Conditions: for Emax: read-out: % Efficacy; for FXR pEC50: FXR ligand binding assay, -log EC50. In general terms: Time-resolved FRET reads energy transfer from a long-lived donor to a nearby acceptor.
Chain of ligand binding domain of human FXR (Q96RI1 262-486): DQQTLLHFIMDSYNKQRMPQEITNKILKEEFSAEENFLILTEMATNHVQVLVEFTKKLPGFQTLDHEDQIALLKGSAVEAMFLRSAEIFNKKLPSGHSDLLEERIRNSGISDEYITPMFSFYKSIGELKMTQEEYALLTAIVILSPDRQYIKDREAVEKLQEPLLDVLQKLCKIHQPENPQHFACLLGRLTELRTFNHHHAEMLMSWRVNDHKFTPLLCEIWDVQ

Data set [2] deals with human Farnesoid X receptor ligand-binding domain/Gal4 DNA binding domain chimera (Homo sapiens (Human), UniProt Q96RI1). The data set can be described thus: Cell-based FXR beta-lactamase reporter assay (FXR-UAS-bla HEK 293T cells). To be noted: for Emax: HEK-293T, read-out: % Efficacy. An outline of the steps:
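Stable FXR-UAS-bla HEK 293T cells in phenol red-free DMEM with 2% charcoal-stripped FBS were exposed to 3-fold serial dilutions of compound. Beta-lactamase reporter activity was read by CCF4 FRET loss, exciting at 409 nm with blue emission at 447 nm. The FRET change versus concentration was fit to a 3-parameter logistic equation.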
(In a reporter assay the amount or activity of a reporter protein is the signal.)

Data set [3] concerns fibroblast growth factor 19 (FGF19) secretion in human ileum. The data set can be described thus: Human ileum APECCS (FGF19 secretion). Conditions: for EC50: Fibroblast; for Activity, %: relative to GW4064. The data set is classed as cell-based.
In another data set the test system is FXR target genes. The experiment in a line: Single-dose FXR target gene expression in mice fed a standard diet. It counts as in vivo, C57BL/6 mice. To be noted: single dose 30 mg/kg. The source says:
(§1) Total RNA from mouse tissues was isolated and used for library preparation.

The next data set is described as follows: Western diet study. It counts as in vivo, C57BL/6 mice. Conditions: male, C57BL/6, mouse, serum; 30 mg/kg q.d., after 2 weeks of treatment, 2 hours after the last dose; read-out: serum FXR agonist concentration. The protocol: (§2) Six-week-old C57BL/6 male mice were fed a Western diet (WD) (62% fat/0.2% cholesterol). […] An additional control group (lean) was fed a standard rodent chow throughout the study. Body weight measurements and serum samples (tail bleed) were taken weekly. After 6 weeks of treatment, all animals were sacrificed and hepatosteatosis-related endpoints and other liver markers were measured.
as §1

Data set [4] deals with C57BL/6 male mice fed a Western diet. The experiment in a line: Western diet study. It counts as in vivo, C57BL/6 mice. As to the method:
as §2, §1

Where [5] appears, read: cellular FXR beta-lactamase reporter assay, -log EC50, read-out: FXR pEC50 (converted).
[6] abbreviates: Western diet, 6 weeks of treatment.
Where [7] appears, read: Western diet, 6 weeks, I-2 30 mg/kg q.d. or b.i.d., Px-102 30 mg/kg q.d., FGF15-AAV single IV dose.

Chain of human Farnesoid X receptor ligand-binding domain/Gal4 DNA binding domain chimera (Q96RI1 262-486, change not shown): as the sequence (Q96RI1 262-486) above

As for `Cc1cc(C(=O)O)cc2sc(N3[C@@H]4CC[C@H]3C[C@@H](OC(=O)c3c(-c5c(Cl)cccc5Cl)noc3C3(F)CC3)C4)nc12` [Compound I-59, 2-[(1R,3R,5S)-3-[3-(2,6-dichlorophenyl)-5-(1-fluorocyclopropyl)-1,2-oxazole-4-carbonyloxy]-8-azabicyclo[3.2.1]octan-8-yl]-4-methyl-1,3-benzothiazole-6-carboxylic Acid], the Emax in data set [1] came out at 95%; in data set [2], 105%. Further, in data set [2] (setting [5]), the EC50 is 39.8 nM.

Consider `CCc1cc(C(=O)O)cc2sc(N3[C@@H]4CC[C@H]3C[C@@H](OC(=O)c3c(-c5c(Cl)cccc5Cl)noc3C3CC3)C4)nc12` [Compound I-60, 2-[(1R,3R,5S)-3-[5-cyclopropyl-3-(2,6-dichlorophenyl)-1,2-oxazole-4-carbonyloxy]-8-azabicyclo[3.2.1]octan-8-yl]-4-ethyl-1,3-benzothiazole-6-carboxylic Acid], for which, in data set [1], the “FXR pEC50” value was determined as 7 and the Emax came to 119%. The Emax in data set [2] was determined as 104%. The EC50 in data set [2] (setting [5]) is 6.31 nM.

In the case of `Cc1cc(C(=O)O)cc2sc(N3[C@@H]4CC[C@H]3C[C@@H](OC(=O)c3c(-c5ccccc5C(F)(F)F)noc3C3CC3)C4)nc12` [Compound I-61, 2-[(1R,3R,5S)-3-{5-cyclopropyl-3-[2-(trifluoromethyl)phenyl]-1,2-oxazole-4-carbonyloxy}-8-azabicyclo[3.2.1]octan-8-yl]-4-methyl-1,3-benzothiazole-6-carboxylic Acid], in data set [1], the “FXR pEC50” value is 7.1 and the Emax was 139%. Moreover, in data set [2], the Emax worked out at 102%. For the same compound, the EC50 in data set [2] (setting [5]) is 10 nM.

Turning to `CCCS(=O)(=O)NC(=O)c1cc(F)c2nc(N3[C@@H]4CC[C@H]3C[C@@H](OC(=O)c3c(-c5c(Cl)cccc5Cl)noc3C3(F)CC3)C4)sc2c1` [Compound I-62, (1R,3R,5S)-8-{4-fluoro-6-[(propane-1-sulfonyl)carbamoyl]-1,3-benzothiazol-2-yl}-8-azabicyclo[3.2.1]octan-3-yl 3-(2,6-dichlorophenyl)-5-(1-fluorocyclopropyl)-1,2-oxazole-4-carboxylate], the “FXR pEC50” value in data set [1] is listed as 7.4. Besides, the values for the Emax in data set [1] and in data set [2] were 145% and 107%, respectively. Besides, in data set [2] (setting [5]), the EC50 is 20 nM.

In the case of `O=C(OCCN(CCO)CCO)c1cc(F)c2nc(N3[C@@H]4CC[C@H]3C[C@@H](OC(=O)c3c(-c5c(Cl)cccc5Cl)noc3C3CC3)C4)sc2c1` [Compound I-63, 2-[bis(2-hydroxyethyl)amino]ethyl 2-[(1R,3R,5S)-3-[5-cyclopropyl-3-(2,6-dichlorophenyl)-1,2-oxazole-4-carbonyloxy]-8-azabicyclo[3.2.1]octan-8-yl]-4-fluoro-1,3-benzothiazole-6-carboxylate], in data set [1], the “FXR pEC50” value is listed as >6.5. Also, the Emax in data set [2] came to 112%. Besides, the EC50 in data set [2] (setting [5]) was 10000 nM.

Take `O=C(OCC(=O)N(CCO)CCO)c1cc(F)c2nc(N3[C@@H]4CC[C@H]3C[C@@H](OC(=O)c3c(-c5c(Cl)cccc5Cl)noc3C3CC3)C4)sc2c1` [Compound I-64, [bis(2-hydroxyethyl)carbamoyl]methyl 2-[(1R,3R,5S)-3-[5-cyclopropyl-3-(2,6-dichlorophenyl)-1,2-oxazole-4-carbonyloxy]-8-azabicyclo[3.2.1]octan-8-yl]-4-fluoro-1,3-benzothiazole-6-carboxylate]: in data set [1], the “FXR pEC50” value is 6.6 and the Emax came to 32%. Besides, the EC50 in data set [2] (setting [5]) was < 31.6 nM.

As for `CC(C)c1onc(-c2c(Cl)cccc2Cl)c1COc1ccc(/C=C/c2cccc(C(=O)O)c2)c(Cl)c1` [GW4064], in data set [3], the EC50 was 316 nM and the “Activity, %” value was determined as 100 ± 0%.

In the case of `CC[C@H]1[C@@H](O)[C@@H]2[C@H](CC[C@]3(C)[C@@H]([C@H](C)CCC(=O)O)CC[C@@H]23)[C@@]2(C)CC[C@@H](O)C[C@@H]12` [OCA, Obeticholic acid], in data set [3], the EC50 is 501 nM and the “Activity, %” value was determined as 82.6 ± 19%.

`O=C(O)c1ccc([C@H]2C[C@@H]2c2ccc(OCc3c(-c4c(Cl)cccc4Cl)noc3C3CC3)cc2Cl)cc1` [Px-102]: the “Activity, %” value in data set [1] (Human FXR Binding (FRET), relative to GW4064) is 90 ± 15%. For the same compound, in data set [1] (Human FXR Binding (FRET), value ± spread, read-out: pEC50 (converted)), the EC50 is 10 nM. In data set [2] (Human FXR Cell (Gal4), relative to GW4064), the “Activity, %” value amounted to 108%. Also, the EC50 in data set [2] (Human FXR Cell (Gal4), read-out: pEC50 (converted)) was 158 nM. Besides, in data set [3], the EC50 is 331 nM and the “Activity, %” value came out at 96.5 ± 25%. Further, in the data set on FXR target genes, the “expression of selected FXR target genes in the liver” value was “activated”. Moreover, the “expression of FXR target genes, including FGF15, in the ileum” value with FXR target genes (6 h after dosing) is recorded as “activated”. Besides, the concentration at 2 h in the data set “Western diet study” was 475 ng/mL. In data set [4] (setting [6]), the body weight result is reported as “did not affect” and the liver weight result is “did not affect”. In data set [4] (setting [7]), the liver cholesterol entry is given as “normalized”, the liver triglycerides result is recorded as “normalized”, the macrovesicular steatosis result is “reduced” and the serum cholesterol entry is “reduced”. Further, the Cyp7a1 gene expression result in data set [4] (liver, Western diet) is “downregulated”. In addition, the “serum FGF15 concentration” value in data set [4] (mice fed a WD) is listed as “further increased”.
